This passage reports IC50 results from patent US11420958B2, “Aryl and heteroaryl substituted indole compounds” (BRISTOL-MYERS SQUIBB COMPANY, priority 2017, dated 2022).

Assay type in all cases: cell-based
One assay deals with human TLR7 (Homo sapiens (Human), UniProt Q9NYK1). Kind of assay: TLR7 inhibition reporter assay (HEK-Blue, SEAP). The conditions noted are these: HEK-Blue cells overexpressing human TLR7, gardiquimod 7.5 μM stimulation. In a few lines: (§1)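 HEK-Blue cells expressing human TLR7, TLR8 or TLR9 with NF-κB/AP-1-driven SEAP reporter; compounds 0.05 nM–50 μM, 30 min pre-treatment at room temperature. Stimulated with gardiquimod 7.5 μM (TLR7), R848 15.9 μM (TLR8) or ODN2006 5 nM (TLR9), 22 h at 37 °C; % inhibition of SEAP signal relative to agonist+DMSO and known-inhibitor wells.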
Sequence of human TLR7 (Q9NYK1 27-1049): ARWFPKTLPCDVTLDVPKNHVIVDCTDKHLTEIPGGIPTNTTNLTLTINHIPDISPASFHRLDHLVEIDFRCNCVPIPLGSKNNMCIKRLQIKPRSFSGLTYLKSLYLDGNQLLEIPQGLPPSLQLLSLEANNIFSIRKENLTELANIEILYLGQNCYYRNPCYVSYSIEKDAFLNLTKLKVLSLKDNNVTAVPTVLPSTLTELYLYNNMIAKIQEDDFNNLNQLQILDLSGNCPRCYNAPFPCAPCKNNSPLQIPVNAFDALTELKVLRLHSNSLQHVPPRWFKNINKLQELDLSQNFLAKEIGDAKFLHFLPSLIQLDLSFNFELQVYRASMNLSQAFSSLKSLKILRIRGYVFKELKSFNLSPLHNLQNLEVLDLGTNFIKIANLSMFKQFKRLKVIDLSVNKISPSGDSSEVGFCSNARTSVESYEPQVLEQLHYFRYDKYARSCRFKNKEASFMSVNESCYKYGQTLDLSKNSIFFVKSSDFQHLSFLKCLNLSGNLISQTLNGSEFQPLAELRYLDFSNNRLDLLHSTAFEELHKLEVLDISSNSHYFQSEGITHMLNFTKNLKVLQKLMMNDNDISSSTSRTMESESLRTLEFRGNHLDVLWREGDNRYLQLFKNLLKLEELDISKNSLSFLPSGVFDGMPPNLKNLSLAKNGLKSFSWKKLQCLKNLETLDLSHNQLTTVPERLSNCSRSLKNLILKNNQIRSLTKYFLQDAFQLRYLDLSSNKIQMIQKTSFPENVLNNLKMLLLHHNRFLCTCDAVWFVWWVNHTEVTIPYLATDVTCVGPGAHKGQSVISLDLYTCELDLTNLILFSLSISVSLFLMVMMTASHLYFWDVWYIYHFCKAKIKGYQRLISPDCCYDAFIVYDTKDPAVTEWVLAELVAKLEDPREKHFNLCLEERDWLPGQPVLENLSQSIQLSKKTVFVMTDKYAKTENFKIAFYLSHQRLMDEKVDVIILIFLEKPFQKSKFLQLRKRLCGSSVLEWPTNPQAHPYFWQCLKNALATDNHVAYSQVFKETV

In another assay the target is human TLR8 (Homo sapiens (Human), UniProt Q9NR97). In words: TLR8 inhibition reporter assay (HEK-Blue, SEAP). Particulars: HEK-Blue cells overexpressing human TLR8, R848 15.9 μM stimulation. In short, it runs like this:
as §1

The target of the next assay is human TLR9 (Homo sapiens (Human), UniProt Q9NR96). Kind of assay: TLR9 inhibition reporter assay (HEK-Blue, SEAP). The conditions noted are these: HEK-Blue cells overexpressing human TLR9, ODN2006 5 nM stimulation. In short, it runs like this:
as §1

pIC50: −log10 of the molar value.

Sequence of human TLR8 (Q9NR97 27-1041): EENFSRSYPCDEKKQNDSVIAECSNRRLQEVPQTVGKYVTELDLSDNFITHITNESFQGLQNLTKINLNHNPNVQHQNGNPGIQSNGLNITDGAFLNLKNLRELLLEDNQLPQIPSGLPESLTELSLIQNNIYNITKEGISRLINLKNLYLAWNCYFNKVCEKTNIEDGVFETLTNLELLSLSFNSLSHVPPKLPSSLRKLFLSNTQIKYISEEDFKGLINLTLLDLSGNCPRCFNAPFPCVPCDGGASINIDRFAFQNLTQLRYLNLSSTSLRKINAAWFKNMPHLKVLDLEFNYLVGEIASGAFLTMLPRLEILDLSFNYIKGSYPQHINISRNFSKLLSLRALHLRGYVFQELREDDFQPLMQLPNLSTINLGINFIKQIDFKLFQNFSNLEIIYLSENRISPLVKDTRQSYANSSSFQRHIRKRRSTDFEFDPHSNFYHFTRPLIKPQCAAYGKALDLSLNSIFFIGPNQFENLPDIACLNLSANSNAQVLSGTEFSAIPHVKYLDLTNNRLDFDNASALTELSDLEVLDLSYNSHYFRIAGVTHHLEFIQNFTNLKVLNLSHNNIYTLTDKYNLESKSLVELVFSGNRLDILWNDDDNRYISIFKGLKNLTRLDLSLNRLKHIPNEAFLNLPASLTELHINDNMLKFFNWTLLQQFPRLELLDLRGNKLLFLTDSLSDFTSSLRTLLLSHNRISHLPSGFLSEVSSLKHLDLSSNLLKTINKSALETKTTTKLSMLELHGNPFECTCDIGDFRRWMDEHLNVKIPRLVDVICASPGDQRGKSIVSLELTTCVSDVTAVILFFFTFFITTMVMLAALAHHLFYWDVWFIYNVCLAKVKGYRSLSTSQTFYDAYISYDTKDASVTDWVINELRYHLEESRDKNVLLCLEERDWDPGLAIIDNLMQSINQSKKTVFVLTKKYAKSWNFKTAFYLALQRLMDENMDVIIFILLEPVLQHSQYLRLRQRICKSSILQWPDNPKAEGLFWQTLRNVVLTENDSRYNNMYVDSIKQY
Sequence of human TLR9 (Q9NR96 26-1032): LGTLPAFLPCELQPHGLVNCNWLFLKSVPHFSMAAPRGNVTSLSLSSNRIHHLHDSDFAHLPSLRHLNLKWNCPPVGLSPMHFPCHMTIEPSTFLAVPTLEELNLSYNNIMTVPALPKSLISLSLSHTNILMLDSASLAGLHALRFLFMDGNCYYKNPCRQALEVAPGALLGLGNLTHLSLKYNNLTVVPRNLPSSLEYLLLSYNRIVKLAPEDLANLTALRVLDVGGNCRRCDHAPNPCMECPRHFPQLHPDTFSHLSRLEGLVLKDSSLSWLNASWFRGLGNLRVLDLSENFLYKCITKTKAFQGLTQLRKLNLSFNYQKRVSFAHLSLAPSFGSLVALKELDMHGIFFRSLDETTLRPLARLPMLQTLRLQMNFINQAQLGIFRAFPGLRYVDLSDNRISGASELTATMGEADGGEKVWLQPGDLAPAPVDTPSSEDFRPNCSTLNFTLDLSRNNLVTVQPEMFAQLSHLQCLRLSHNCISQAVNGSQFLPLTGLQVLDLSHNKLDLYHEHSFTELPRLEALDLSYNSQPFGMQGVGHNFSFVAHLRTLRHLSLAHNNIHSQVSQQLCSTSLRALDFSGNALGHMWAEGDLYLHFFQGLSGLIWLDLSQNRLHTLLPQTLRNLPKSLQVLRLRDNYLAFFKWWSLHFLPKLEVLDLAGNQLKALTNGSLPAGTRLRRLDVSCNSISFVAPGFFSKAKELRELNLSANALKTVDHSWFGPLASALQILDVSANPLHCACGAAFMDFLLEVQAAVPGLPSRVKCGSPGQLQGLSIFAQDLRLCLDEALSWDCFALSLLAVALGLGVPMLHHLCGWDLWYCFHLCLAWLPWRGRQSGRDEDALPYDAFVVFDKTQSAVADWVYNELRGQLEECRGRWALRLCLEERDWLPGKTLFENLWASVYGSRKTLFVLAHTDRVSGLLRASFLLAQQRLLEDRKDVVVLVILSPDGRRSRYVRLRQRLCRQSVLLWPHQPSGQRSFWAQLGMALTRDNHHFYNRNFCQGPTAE

Consider `Cc1cc(-c2[nH]c3ccc(-c4nnc([C@H]5Cc6ccccc6CN5)o4)cc3c2C(C)C)ccn1` [Example 72, (R)-2-(3-isopropyl-2-(2-methylpyridin-4-yl)-1H-indol-5-yl)-5-(1,2,3,4-tetrahydroisoquinolin-3-yl)-1,3,4-oxadiazole], for which the pIC50 on human TLR7 is 6.10; on human TLR8, 7.35; against human TLR9 it was 5.73.

As to `Cc1cc(-c2[nH]c3ccc(-c4nnc(Cc5c[nH]c6ccccc56)o4)cc3c2C(C)C)ccn1` [Example 73, 2-((1H-indol-3-yl)methyl)-5-(3-isopropyl-2-(2-methylpyridin-4-yl)-1H-indol-5-yl)-1,3,4-oxadiazole], the figures for the negative-log IC50 (pIC50) against human TLR7, at human TLR8 and on human TLR9 were 5.64, 5.89 and under 4.30, respectively.

With `Cc1cc(-c2[nH]c3ccc(-c4nnc(Cc5cccnc5)o4)cc3c2C(C)C)ccn1` [Example 74, 2-(3-isopropyl-2-(2-methylpyridin-4-yl)-1H-indol-5-yl)-5-(pyridin-3-ylmethyl)-1,3,4-oxadiazole], the pIC50 was 6.88 at human TLR7, 7.68 against human TLR8 and 4.80 against human TLR9.

In the case of `Cc1cc(-c2[nH]c3ccc(-c4nnc(CC(F)(F)F)o4)cc3c2C(C)C)ccn1` [Example 75, 2-(3-isopropyl-2-(2-methylpyridin-4-yl)-1H-indol-5-yl)-5-(2,2,2-trifluoroethyl)-1,3,4-oxadiazole], the pIC50 against human TLR7 is 6.24; on human TLR8 it was 7.14; against human TLR9 it was under 4.30.

`Cc1cc(-c2[nH]c3ccc(-c4nnc(Cc5nnn[nH]5)o4)cc3c2C(C)C)ccn1` [Example 76, 2-((1H-tetrazol-5-yl)methyl)-5-(3-isopropyl-2-(2-methylpyridin-4-yl)-1H-indol-5-yl)-1,3,4-oxadiazole]: the pIC50 against human TLR7 is 5.72; against human TLR8, 6.32; at human TLR9, under 4.30.

For `Cc1cc(-c2[nH]c3ccc(-c4nnc(CCCN(C)C)o4)cc3c2C(C)C)ccn1` [Example 77, 3-(5-(3-isopropyl-2-(2-methylpyridin-4-yl)-1H-indol-5-yl)-1,3,4-oxadiazol-2-yl)-N,N-dimethylpropan-1-amine], the figures for the negative-log IC50 (pIC50) at human TLR7, on human TLR8 and against human TLR9 were 7.54, 8.77 and 6.16, respectively.

For `Cc1cc(-c2[nH]c3ccc(-c4nnc(C5CCC(C(F)(F)F)CC5)o4)cc3c2C(C)C)ccn1` (stereo not drawn) [Example 78, 2-(3-isopropyl-2-(2-methylpyridin-4-yl)-1H-indol-5-yl)-5-(4-(trifluoromethyl)cyclohexyl)-1,3,4-oxadiazole], the results for the pIC50 on human TLR7, on human TLR8 and against human TLR9 were 5.57, 6.27 and under 4.30, respectively.

As for `Cc1cc(-c2[nH]c3ccc(-c4nnc(CN5CCN(C)CC5)o4)cc3c2C(C)C)ccn1` [Example 79, 2-(3-isopropyl-2-(2-methylpyridin-4-yl)-1H-indol-5-yl)-5-((4-methylpiperazin-1-yl)methyl)-1,3,4-oxadiazole], the negative logarithm of the IC50 (pIC50) at human TLR7 is 7.19; against human TLR8, 8.12; at human TLR9 it was 5.90.

Turning to `Cc1cc(-c2[nH]c3ccc(-c4nnc([C@@H]5CCCNC5)o4)cc3c2C(C)C)ccn1` [Example 80, (R)-2-(3-isopropyl-2-(2-methylpyridin-4-yl)-1H-indol-5-yl)-5-(piperidin-3-yl)-1,3,4-oxadiazole], the pIC50 was 7.72 against human TLR7, 8.92 at human TLR8 and 6.23 against human TLR9.

For `Cc1cc(-c2[nH]c3ccc(-c4nnc([C@@H]5Cc6ccccc6CN5)o4)cc3c2C(C)C)ccn1` [Example 81, (S)-2-(3-isopropyl-2-(2-methylpyridin-4-yl)-1H-indol-5-yl)-5-(1,2,3,4-tetrahydroisoquinolin-3-yl)-1,3,4-oxadiazole], the values for the pIC50 against human TLR7, at human TLR8 and against human TLR9 were 6.11, 7.14 and under 4.30, respectively.

Take `Cc1cc(-c2[nH]c3ccc(-c4nnc([C@H]5CSCN5)o4)cc3c2C(C)C)ccn1` [Example 82, (S)-2-(3-isopropyl-2-(2-methylpyridin-4-yl)-1H-indol-5-yl)-5-(thiazolidin-4-yl)-1,3,4-oxadiazole]: the pIC50 was 6.22 on human TLR7, 7.02 at human TLR8 and under 4.30 against human TLR9.

For `COc1ccc(-c2[nH]c3ccc(-c4nnc(C5CCN(CC(=O)N(C)C)CC5)o4)cc3c2CC(F)(F)F)cc1OC` [Example 83, 2-(4-(5-(2-(3,4-dimethoxyphenyl)-3-(2,2,2-trifluoroethyl)-1H-indol-5-yl)-1,3,4-oxadiazol-2-yl)piperidin-1-yl)-N,N-dimethylacetamide], the negative logarithm of the IC50 (pIC50) is 6.80 against human TLR7, 7.40 against human TLR8 and 5.59 against human TLR9.

Take `CC(C)c1c(-c2ccnc3[nH]ncc23)[nH]c2ccc(-c3nnc(C(=O)NC4CCN(C(C)C)CC4)o3)cc12` [Example 84, 5-(3-isopropyl-2-(1H-pyrazolo[3,4-b]pyridin-4-yl)-1H-indol-5-yl)-N-(1-isopropylpiperidin-4-yl)-1,3,4-oxadiazole-2-carboxamide]: the pIC50 on human TLR7 was 7.06; at human TLR8, 8.22; against human TLR9, 6.63.

Regarding `CC(C)c1c(-c2ccnc3[nH]ncc23)[nH]c2ccc(-c3nnc(C(=O)N4CC5CNCC5C4)o3)cc12` (stereo not drawn) [Example 85, (hexahydropyrrolo[3,4-c]pyrrol-2(1H)-yl)(5-(3-isopropyl-2-(1H-pyrazolo[3,4-b]pyridin-4-yl)-1H-indol-5-yl)-1,3,4-oxadiazol-2-yl)methanone], the results for the pIC50 on human TLR7, on human TLR8 and on human TLR9 were 6.48, 8.04 and 6.23, respectively.

Regarding `CC(C)c1c(-c2ccnc3[nH]ncc23)[nH]c2ccc(-c3nnc(C4CCN(C(=O)CN(C)C)CC4)o3)cc12` [Example 86, 2-(dimethylamino)-1-(4-(5-(3-isopropyl-2-(1H-pyrazolo[3,4-b]pyridin-4-yl)-1H-indol-5-yl)-1,3,4-oxadiazol-2-yl)piperidin-1-yl)ethan-1-one], the negative logarithm of the IC50 (pIC50) at human TLR7 is 7.07; against human TLR8, 8.21; at human TLR9 it was 6.49.

As to `CC(C)c1c(-c2ccnc3[nH]ncc23)[nH]c2ccc(-c3nnc(C4CCN(CC(=O)N(C)C)CC4)o3)cc12` [Example 87, 2-(4-(5-(3-isopropyl-2-(1H-pyrazolo[3,4-b]pyridin-4-yl)-1H-indol-5-yl)-1,3,4-oxadiazol-2-yl)piperidin-1-yl)-N,N-dimethylacetamide], the values for the negative-log IC50 (pIC50) at human TLR7, against human TLR8 and on human TLR9 were 6.26, 8.01 and 5.25, respectively.

Take `CNC(=O)CN1CCC(c2nnc(-c3ccc4[nH]c(-c5ccnc6[nH]ncc56)c(C(C)C)c4c3)o2)CC1` [Example 88, 2-(4-(5-(3-isopropyl-2-(1H-pyrazolo[3,4-b]pyridin-4-yl)-1H-indol-5-yl)-1,3,4-oxadiazol-2-yl)piperidin-1-yl)-N-methylacetamide]: the pIC50 against human TLR7 is 6.53; against human TLR8 it was 8.00; on human TLR9 it was 5.32.

As to `CCN(CC)C(=O)C1CCCN(C(=O)c2nnc(-c3ccc4[nH]c(-c5ccc(OC)c(OC)c5)c(C(C)C)c4c3)o2)C1` (stereo not drawn) [Example 89, 1-(5-(2-(3,4-dimethoxyphenyl)-3-isopropyl-1H-indol-5-yl)-1,3,4-oxadiazole-2-carbonyl)-N,N-diethylpiperidine-3-carboxamide], the pIC50 at human TLR7 is 5.83; against human TLR8, 6.66; on human TLR9, 5.02.

With `COc1ccc(-c2[nH]c3ccc(-c4nnc(C(=O)NCCN(C)C)o4)cc3c2C(C)C)cc1OC` [Example 90, 5-(2-(3,4-dimethoxyphenyl)-3-isopropyl-1H-indol-5-yl)-N-(2-(dimethylamino)ethyl)-1,3,4-oxadiazole-2-carboxamide], the pIC50 against human TLR7 is 7.52; at human TLR8 it was 8.40; on human TLR9 it was 6.10.

In the case of `COc1ccc(-c2[nH]c3ccc(-c4nnc(C(=O)N5CCC(O)CC5)o4)cc3c2C(C)C)cc1OC` [Example 91, (5-(2-(3,4-dimethoxyphenyl)-3-isopropyl-1H-indol-5-yl)-1,3,4-oxadiazol-2-yl)(4-hydroxypiperidin-1-yl)methanone], the pIC50 against human TLR7 was 6.46; at human TLR8 it was 6.95; against human TLR9, under 4.30.

`COc1ccc(-c2[nH]c3ccc(-c4nnc(C(=O)N5CCN(C(C)=O)CC5)o4)cc3c2C(C)C)cc1OC` [Example 92, 1-(4-(5-(2-(3,4-dimethoxyphenyl)-3-isopropyl-1H-indol-5-yl)-1,3,4-oxadiazole-2-carbonyl)piperazin-1-yl)ethan-1-one]: the pIC50 against human TLR7 is 6.25; at human TLR8 it was 6.96; against human TLR9, 4.58.

With `COc1ccc(-c2[nH]c3ccc(-c4nnc(C(=O)N5CCCN(C)CC5)o4)cc3c2C(C)C)cc1OC` [Example 93, (5-(2-(3,4-dimethoxyphenyl)-3-isopropyl-1H-indol-5-yl)-1,3,4-oxadiazol-2-yl)(4-methyl-1,4-diazepan-1-yl)methanone], the results for the negative logarithm of the IC50 (pIC50) against human TLR7, on human TLR8 and against human TLR9 were 7.07, 7.82 and 5.69, respectively.

Take `COc1ccc(-c2[nH]c3ccc(-c4nnc(C(=O)N(C)CCc5ccccn5)o4)cc3c2C(C)C)cc1OC` [Example 94, 5-(2-(3,4-dimethoxyphenyl)-3-isopropyl-1H-indol-5-yl)-N-methyl-N-(2-(pyridin-2-yl)ethyl)-1,3,4-oxadiazole-2-carboxamide]: the pIC50 against human TLR7 was 6.74; against human TLR8, 6.65; against human TLR9 it was 4.88.

Turning to `COc1ccc(-c2[nH]c3ccc(-c4nnc(C(=O)N5CCC(N6CCCC6)CC5)o4)cc3c2C(C)C)cc1OC` [Example 95, (5-(2-(3,4-dimethoxyphenyl)-3-isopropyl-1H-indol-5-yl)-1,3,4-oxadiazol-2-yl)(4-(pyrrolidin-1-yl)piperidin-1-yl)methanone], the negative logarithm of the IC50 (pIC50) is 7.00 against human TLR7, 7.68 at human TLR8 and 5.85 at human TLR9.
